Reference: patent US20240368191A1, “HETEROCYCLIC COMPOUNDS AND USES THEREOF” (Kumquat Biosciences Inc., priority 2021, published 2024)

Assays:
[1] = target: T1, KRAS G12S 1-169 (His-tagged, GDP-loaded) (Homo sapiens, UniProt P01116, G12S); experiment: Covalent modification of KRAS protein by intact-protein LC-MS; assay type: binding; conditions: KRAS G12S, 24 hr
T1 construct: His -tagged GDP-loaded G12S 1-169; made in house; host or cells: E. coli, e.g. BL21 (DE3)
Summary of the method: (§1)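 Percent modification is derived from deconvoluted intact-protein LC-ESI-MS peak intensities of adducted versus unmodified KRAS. GDP-loaded His-tagged KRAS 1-169 (~2 μM, HEPES buffer at physiological conditions) was exposed to compound for 24 hrs at room temperature, then quenched with formic acid before C4 reversed-phase separation.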

[2] = target: T2, KRAS G12D 1-169 (His-tagged, GDP-loaded) (Homo sapiens, UniProt P01116, G12D); experiment: as above; assay type: binding; conditions: comparable or same conditions as K-Ras G12S
T2 construct: His -tagged GDP-loaded G12D 1-169; made in house; host or cells: E. coli, e.g. BL21 (DE3)
Summary of the method: as §1

N#Cc1c(N)sc2c(F)ccc(-c3c(Cl)cc4c(N[C@H]5C[C@H]6CC[C@@H](C5)N6C(=O)n5cncn5)nc(OC[C@@]56CCCN5C[C@H](F)C6)nc4c3F)c12 [Compound A257, 4-(4-(((1R,3r,5S)-8-(1H-1,2,4-triazole-1-carbonyl)-8-aza-bicyclo-[3.2.1]octan-3-yl)-amino)-6-chloro-8-fluoro-2-(((2R,7aS)-2-fluorotetrahydro-1H-pyrrolizin-7a(5H)-yl)meth-oxy)quinazolin-7-yl)-2-amino-7-fluorobenzo[b]thiophene-3-carbonitrile]
% G12S Modification at 24 hr. [1]: ++ (++ indicates between about 1%-20% labelling)
covalent labeling of K-Ras G12D [2]: essentially no detectable labeling

C#Cc1c(F)ccc2cc(O)cc(-c3ncc4c(N5CC6CCC(C5)N6C(=O)n5cnc(C#N)c5)nc(OC[C@@]56CCCN5C[C@H](F)C6)nc4c3F)c12 [Compound A255, 1-(3-(7-(8-ethynyl-7-fluoro-3-hydroxynaphthalen-1-yl)-8-fluoro-2-(((2R,7aS)-2-fluoro-tetrahydro-1H-pyrrolizin-7a(5H)-yl)methoxy)pyrido[4,3-d]pyrimidin-4-yl)-3,8-diaza-bicyclo[3.2.1]octane-8-carbon-yl)-1H-imidazole-4-carbonitrile]
% G12S Modification at 24 hr. [1]: ++ (++ indicates between about 1%-20% labelling)
covalent labeling of K-Ras G12D [2]: essentially no detectable labeling
